The values that follow come from patent US10421765B2, “Tetrahydropyrido[4,3-d]pyrimidine inhibitors of ATR kinase” (Board of Regents, The University of Texas System, priority 2017, dated 2019).

Like-named read-outs stand apart in the source and are kept apart here.

One assay addresses ATR/ATRIP complex (Homo sapiens (Human), UniProt Q13535). The assay is described as follows: ATR/ATRIP enzymatic assay (Caliper-based). The format is biochemical. To be noted: FAM-labeled RAD17 peptide, ATP. As to the method:
Human full-length FLAG-TEV-ATR and His6-ATRIP were co-expressed in HEK293 cells. The cell pellet (20 g) was harvested and lysed in 100 mL of lysis buffer (20 mM Tris-HCl pH 7.5 at room temperature, 137 mM NaCl, 10% glycerol, 1 mM DTT, 1% (v/v) Tween-20, 0.1% (v/v) NP-40, complete protease inhibitor cocktail tablets, phosphatase inhibitor cocktail tablets, 2 mM MgCl2, 0.2 mM EDTA, and 1 mM ATP). After sonication and centrifugation, the supernatant was incubated at 4° C. for 3 hours with 1 mL of anti-FLAG resin (Sigma catalog #A2220) that had been pre-equilibrated in buffer A (20 mM Tris-HCl pH 7.5 at room temperature, 137 mM NaCl, 10% glycerol, 1 mM DTT, 2 mM MgCl2, and 0.2 mM EDTA). The sample was loaded into a column, and then washed with buffer A three times. Protein was subsequently eluted with 2 ml of buffer B (buffer A+200 μg/ml 3×FLAG peptide).
The ability of new chemical matter to inhibit the ATR catalytic activity in this ATR/ATRIP complex was assessed using a Caliper-based assay. A 2x enzyme solution (i.e., 4 nM enzyme) was prepared using 1× Kinase Reaction Buffer (25 mM HEPES pH 8, 0.0055% Brij-35, 10 mM MnCl2, and 1 mM DTT). A 2x peptide solution was then prepared consisting of 10 uM FAM-labeled RAD17 peptide (GL Biochem, catalog #524315) in 1× Kinase Reaction Buffer supplemented with 2 μM ATP. 10 μL of the 2× enzyme solution was transferred to an assay plate containing 60 nL of test compound (from a 3× serial dilution) in 100% DMSO. Following a 30 minute incubation at 28° C., 10 μL of the 2× peptide solution was then transferred to the same assay plate. The reaction was allowed to incubate at 28° C. for 6 hours. After adding […] of stop buffer (100 mM HEPES pH 7.5, 0.015% Brij-35, 0.2% Coating-3 Reagent (PerkinElmer, catalog #PN760050), and 50 mM EDTA), data were collected on a Caliper instrument. Conversion values were converted to inhibition values via the following equation: % inhibition=(max−conversion)/(max−min)*100, whereby “max” corresponds to the DMSO control and “min” corresponds to the low control. IC50 values were calculated using the following equation in XLFit: Y=Bottom+(Top−Bottom)/1+(IC50/X)^HillSlope).

Assay [1] has as its system ATR-driven phosphorylation of Chk1 kinase at Serine 345 in HT-29 colorectal adenocarcinoma cells. In words: pCHK1 cellular assay (CHK1 p-Ser345 AlphaScreen SureFire). The format is cell-based. To be noted: 4-nitroquinoline N-oxide 12 uM, read-out: Cell IC50 (pCHK1 IC50 values). Here is the method:
Inhibitors of ATR kinase are effective at inhibiting the ATR-driven phosphorylation of the downstream target Chk1 kinase at Serine 345, following the addition of 4-nitroquinoline N-oxide, a chemical used to induce DNA damage. Cellular IC50 for the inhibitors of ATR described herein were measured in HT-29 colorectal adenocarcinoma cells. HT-29 cells were routinely maintained in McCoy's 5A media (ATCC Catalog #30-2007) supplemented with 10% fetal bovine serum (Sigma Catalog #F2442) and 1× Penicillin-Streptomycin (Gibco Catalog #15140-122) using a humidified incubator (37° C., 5% CO2, and ambient O2).
In preparation for the CHK1 (p-Ser345) ALPHASCREEN® SUREFIRE® assay, cells were harvested and resuspended in McCoy's 5A media supplemented with 10% fetal bovine serum and 1× Penicillin-Streptomycin. Cells were seeded onto a 384-well black CELLSTAR® Tissue Culture Plate (VWR Catalog #89085-314) at a density of 13,000 cells/well in a volume of 40 uL. The microplate was incubated overnight (approximately 20 hours) at 37° C. with 5% CO2 and ambient O2. Stock solutions of the test compounds were prepared in 100% DMSO (Sigma, Catalog #D2650) and serially diluted 1:3 using 100% DMSO. Compounds were additionally diluted 1:33 in culture medium, and 10 ul/well were transferred to the tissue culture plate. Following the compound addition the microplate was incubated at 37° C. for 90 minutes. 10 uL of 4-nitroquinoline N-oxide (Sigma Aldrich Catalog #N8141-1G) diluted in media (final concentration 12 uM) were added to the tissue culture plate followed by a 120 minute incubation at 37° C. The cells were then washed with PBS and lysed using 10 uL/well SUREFIRE® Kit lysis buffer diluted to 1× in water (PerkinElmer Catalog #TGRCHK1S50K), with mixing on an orbital shaker at 500 rpm for 20 min at RT. Lysates were frozen at −20° C. overnight.
4 uL/well of lysate was then transferred from the tissue culture plate to a 384-well, white, low volume, PROXIPLATE™ (PerkinElmer Catalog #600828). 5 uL/well of the acceptor bead solution, prepared by diluting SUREFIRE® Kit activation buffer (PerkinElmer Catalog #TGRCHK1S50K) and ALPHASCREEN® Protein A acceptor beads (PerkinElmer Catalog #6760617R) in SUREFIRE® Kit reaction buffer (PerkinElmer Catalog #TGRCHK1S50K), were added to the lysates under subdued light and incubated at room temperature for 120 min. 2 uL/well of the donor bead solution, prepared by diluting ALPHASCREEN® Streptavidin donor beads (PerkinElmer Catalog #6760617R) in SUREFIRE® Kit dilution buffer (PerkinElmer Catalog #TGRCHK1S50K), were added under subdued light and incubated at room temperature for an addition 120 minutes. The pCHK1 ALPHASCREEN® signal was measured using an ENVISION® plate reader (PerkinElmer). IC50 values were calculated using a four-parameter logistic curve fit using Genedata Screener software. Percent of control for each compound concentration was calculated by the following formula: 100*(Compound−Min)/(Max−Min) where “Max” is the high control, DMSO, and “Min” is the low control, 5 uM ATR inhibitor.
(In general: Bead proximity is the source of the signal in Alpha formats.)

[2] abbreviates: read-out: ATR/ATRIP Enzyme IC50.
Where [3] appears, read: Homo sapiens, HT-29, HT-29 cells.
[4] abbreviates: estimated range, read-out: ATR/ATRIP Enzyme IC50 (estimated class).

ATR/ATRIP complex, sequence (Q13535 whole entry): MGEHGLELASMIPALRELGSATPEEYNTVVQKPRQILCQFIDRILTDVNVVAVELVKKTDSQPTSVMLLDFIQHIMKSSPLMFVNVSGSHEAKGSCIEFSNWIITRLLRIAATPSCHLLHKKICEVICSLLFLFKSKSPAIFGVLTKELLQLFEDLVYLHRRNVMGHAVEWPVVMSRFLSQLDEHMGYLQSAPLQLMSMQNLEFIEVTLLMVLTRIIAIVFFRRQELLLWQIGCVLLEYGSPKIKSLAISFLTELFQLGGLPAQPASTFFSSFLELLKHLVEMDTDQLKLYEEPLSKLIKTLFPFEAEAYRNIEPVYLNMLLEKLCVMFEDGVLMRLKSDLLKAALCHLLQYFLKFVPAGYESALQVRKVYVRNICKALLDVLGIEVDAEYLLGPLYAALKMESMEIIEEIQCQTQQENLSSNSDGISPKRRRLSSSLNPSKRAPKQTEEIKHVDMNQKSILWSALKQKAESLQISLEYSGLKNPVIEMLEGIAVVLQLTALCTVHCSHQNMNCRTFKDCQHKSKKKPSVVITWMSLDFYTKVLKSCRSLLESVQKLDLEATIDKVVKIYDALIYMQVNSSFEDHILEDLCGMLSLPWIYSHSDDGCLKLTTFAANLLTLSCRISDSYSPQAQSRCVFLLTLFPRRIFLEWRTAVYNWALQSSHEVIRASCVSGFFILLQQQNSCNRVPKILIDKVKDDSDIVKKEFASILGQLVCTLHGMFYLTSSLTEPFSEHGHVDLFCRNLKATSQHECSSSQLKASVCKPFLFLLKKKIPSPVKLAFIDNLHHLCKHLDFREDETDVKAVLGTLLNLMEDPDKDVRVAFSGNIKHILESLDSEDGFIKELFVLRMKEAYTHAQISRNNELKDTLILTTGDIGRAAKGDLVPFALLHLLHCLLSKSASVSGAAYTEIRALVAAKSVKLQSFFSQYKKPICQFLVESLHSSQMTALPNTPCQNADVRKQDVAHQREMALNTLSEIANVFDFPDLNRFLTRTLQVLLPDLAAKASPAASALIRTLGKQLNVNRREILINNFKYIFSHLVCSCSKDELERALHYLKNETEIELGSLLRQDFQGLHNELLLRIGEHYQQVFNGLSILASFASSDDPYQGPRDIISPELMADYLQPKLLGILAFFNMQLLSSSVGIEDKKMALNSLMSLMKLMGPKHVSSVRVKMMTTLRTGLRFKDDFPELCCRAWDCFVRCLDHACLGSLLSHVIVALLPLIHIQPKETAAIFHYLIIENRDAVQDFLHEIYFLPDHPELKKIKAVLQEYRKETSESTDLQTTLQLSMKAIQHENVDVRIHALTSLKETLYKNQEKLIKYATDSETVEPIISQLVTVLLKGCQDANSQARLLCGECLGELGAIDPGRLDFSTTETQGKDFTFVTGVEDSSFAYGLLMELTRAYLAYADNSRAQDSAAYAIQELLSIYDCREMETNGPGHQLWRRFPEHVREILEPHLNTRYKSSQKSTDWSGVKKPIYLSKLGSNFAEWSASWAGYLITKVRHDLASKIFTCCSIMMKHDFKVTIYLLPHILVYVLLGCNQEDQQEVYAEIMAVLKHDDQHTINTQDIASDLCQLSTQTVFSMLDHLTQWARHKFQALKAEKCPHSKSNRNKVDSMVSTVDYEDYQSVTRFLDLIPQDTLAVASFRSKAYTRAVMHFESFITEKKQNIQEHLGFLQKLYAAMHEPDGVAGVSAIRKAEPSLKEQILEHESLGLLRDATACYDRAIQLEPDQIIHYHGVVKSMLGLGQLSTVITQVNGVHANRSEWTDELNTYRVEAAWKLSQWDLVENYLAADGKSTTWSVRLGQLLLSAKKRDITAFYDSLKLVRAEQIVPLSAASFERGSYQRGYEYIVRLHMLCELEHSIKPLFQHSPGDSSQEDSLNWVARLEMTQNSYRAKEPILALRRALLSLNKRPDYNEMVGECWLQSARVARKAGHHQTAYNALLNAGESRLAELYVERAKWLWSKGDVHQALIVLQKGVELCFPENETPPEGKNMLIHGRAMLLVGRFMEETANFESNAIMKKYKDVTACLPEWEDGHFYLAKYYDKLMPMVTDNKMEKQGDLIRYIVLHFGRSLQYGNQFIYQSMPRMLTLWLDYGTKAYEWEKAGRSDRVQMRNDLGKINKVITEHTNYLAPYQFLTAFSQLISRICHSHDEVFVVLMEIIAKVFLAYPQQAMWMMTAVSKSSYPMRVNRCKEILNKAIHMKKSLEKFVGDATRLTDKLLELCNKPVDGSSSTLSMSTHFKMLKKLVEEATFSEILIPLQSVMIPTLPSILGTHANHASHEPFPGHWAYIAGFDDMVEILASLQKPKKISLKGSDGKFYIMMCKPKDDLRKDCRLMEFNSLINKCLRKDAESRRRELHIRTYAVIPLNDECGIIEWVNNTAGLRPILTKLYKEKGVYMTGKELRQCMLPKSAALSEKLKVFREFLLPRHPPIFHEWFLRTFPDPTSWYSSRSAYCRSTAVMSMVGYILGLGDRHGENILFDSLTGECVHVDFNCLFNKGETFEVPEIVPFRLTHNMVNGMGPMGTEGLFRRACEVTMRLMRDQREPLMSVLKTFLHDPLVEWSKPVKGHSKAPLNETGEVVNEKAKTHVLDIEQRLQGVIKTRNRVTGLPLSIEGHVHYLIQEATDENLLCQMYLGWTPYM
ATR/ATRIP complex, sequence (Q8WXE1 whole entry partner): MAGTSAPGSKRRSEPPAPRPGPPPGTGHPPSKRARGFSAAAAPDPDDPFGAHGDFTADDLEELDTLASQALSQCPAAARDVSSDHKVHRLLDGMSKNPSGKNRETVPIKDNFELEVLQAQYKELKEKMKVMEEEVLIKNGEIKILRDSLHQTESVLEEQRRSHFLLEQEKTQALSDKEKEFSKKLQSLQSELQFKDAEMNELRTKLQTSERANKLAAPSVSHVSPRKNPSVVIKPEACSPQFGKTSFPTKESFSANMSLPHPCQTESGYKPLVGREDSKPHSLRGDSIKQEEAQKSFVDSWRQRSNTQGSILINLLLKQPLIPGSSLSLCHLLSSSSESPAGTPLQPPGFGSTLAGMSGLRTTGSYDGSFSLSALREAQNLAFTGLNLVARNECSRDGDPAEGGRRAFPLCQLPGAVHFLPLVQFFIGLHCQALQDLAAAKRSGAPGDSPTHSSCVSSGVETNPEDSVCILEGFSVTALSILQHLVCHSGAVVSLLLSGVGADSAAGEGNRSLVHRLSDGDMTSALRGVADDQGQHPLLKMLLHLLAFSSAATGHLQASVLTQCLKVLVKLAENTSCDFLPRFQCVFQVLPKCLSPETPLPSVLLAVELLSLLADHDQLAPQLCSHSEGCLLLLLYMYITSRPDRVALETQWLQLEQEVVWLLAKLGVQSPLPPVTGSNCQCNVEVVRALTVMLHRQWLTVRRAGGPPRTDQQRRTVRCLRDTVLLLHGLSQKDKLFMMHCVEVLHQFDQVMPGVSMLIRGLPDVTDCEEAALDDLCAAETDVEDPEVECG

In the case of `C[C@@H]1Cc2ncnc(C3CCCN(S(C)(=O)=O)C3)c2CN1c1ccnc2[nH]ccc12` (stereo partly drawn) [Example 16, 1-methanesulfonyl-3-[(7R)-7-methyl-6-{1H-pyrrolo[2,3-b]pyridin-4-yl}-5H,6H,7H,8H-pyrido[4,3-d]pyrimidin-4-yl]piperidine], the values for the IC50 (on ATR/ATRIP complex (setting [2]); in assay [1] (setting [3])) were 3570 nM and 140 nM, respectively.
In the same order, the values of `C[C@@H]1Cc2ncnc(N3C[C@H]4CC[C@@H](C3)[C@H]4NS(=O)(=O)C3CC3)c2CN1c1cc(Cl)nc2[nH]ccc12` [Example 78, N-((1R,5S,8R)-3-((R)-6-(6-chloro-1H-pyrrolo[2,3-b]pyridin-4-yl)-7-methyl-5,6,7,8-tetrahydropyrido-[4,3-d]pyrimidin-4-yl)-3-azabicyclo[3.2.1]-octan-8-yl)cyclopropane-sulfonamide] are 184 nM and 50 nM.
For `C[C@@H]1Cc2ncnc(N3CC(NS(=O)(=O)C4CC4)C3)c2CN1c1ccnc2[nH]ccc12` [Example 85, (R)-N-(1-(7-methyl-6-(1H-pyrrolo[2,3-b]-pyridin-4-yl)-5,6,7,8-tetrahydropyrido[4,3-d]-pyrimidin-4-yl)azetidin-3-yl)cyclopropane-sulfonamide] the same measures were 113 nM and 83 nM.
In the same order, the values of `C[C@@H]1Cc2ncnc(N3CCC(NS(C)(=O)=O)CC3)c2CN1c1ccnc2[nH]ccc12` [Example 64, (R)-N-(1-(7-methyl-6-(1H-pyrrolo[2,3-b]-pyridin-4-yl)-5,6,7,8-tetrahydropyrido[4,3-d]-pyrimidin-4-yl)piperidin-4-yl)methanesulfonamide] are 472 nM and 16 nM.
With `C[C@@H]1Cc2ncnc(N3CC(NS(C)(=O)=O)C3)c2CN1c1ccnc2[nH]ccc12` [Example 84, (R)-N-(1-(7-methyl-6-(1H-pyrrolo[2,3-b]-pyridin-4-yl)-5,6,7,8-tetrahydropyrido[4,3-d]pyrimidin-4-yl)-azetidin-3-yl)-methanesulfonamide], the IC50 at ATR/ATRIP complex (setting [2]) was 722 nM; in assay [1] (setting [3]), 79 nM.
For `C[C@@H]1Cc2ncnc(N3C[C@H]4CC[C@@H](C3)C4NS(C)(=O)=O)c2CN1c1cc(Cl)nc2[nH]ccc12` (stereo partly drawn) [Example 13, N-((1R,5S)-3-((R)-6-(6-Chloro-1H-pyrrolo[2,3-b]pyridin-4-yl)-7-methyl-5,6,7,8-tetrahydropyrido[4,3-d]pyrimidin-4-yl)-3-azabicyclo[3.2.]octan-8-yl)methanesulfonamide] the same measures were 114 nM and 29 nM.
With “N-((1R,5S,8R)-3-((R)-7- methyl-6-(1H-pyrrolo- [2,3-b]pyridin-4-yl)- 5,6,7,8-tetrahydropyrido- [4,3-d]pyrimidin-4-yl)-3- azabicyclo[3.2.1]octan-8- yl)methanesulfonamide [Example 74]”, the values for the IC50 (on ATR/ATRIP complex (setting [2]); in assay [1] (HT-29 cells)) were 279 nM and 31 nM, respectively.
With `COC(=O)NC1[C@@H]2CC[C@H]1CN(c1ncnc3c1CN(c1cc(Cl)nc4[nH]ccc14)[C@H](C)C3)C2` (stereo partly drawn) [Example 28, methyl N-{3-[(7R)-6-{6-chloro-1H-pyrrolo[2,3-b]-pyridin-4-yl}-7-methyl-5H,6H,7H,8H-pyrido[4,3-d]pyrimidin-4-yl]-3-aza-bicyclo[3.2.1]octan-8-yl}carbamate], the IC50 at ATR/ATRIP complex (setting [4]) was 1000 to 10000 nM; in assay [1] (setting [3]), 46 nM.
In the same order, the values of `CCC(=O)NC1[C@@H]2CC[C@H]1CN(c1ncnc3c1CN(c1cc(Cl)nc4[nH]ccc14)[C@H](C)C3)C2` (stereo partly drawn) [Example 27, N-[3-[(7R)-6-{6-chloro-1H-pyrrolo[2,3-b]pyridin-4-yl}-7-methyl-5H,6H,7H,8H-pyrido[4,3-d]pyrimidin-4-yl]-3-aza-bicyclo[3.2.1]octan-8-yl}propanamide] are 1000 to 10000 nM and 38 nM.
For the compound `C[C@@H]1Cc2ncnc(N3CCCN(S(C)(=O)=O)CC3)c2CN1c1ccnc2[nH]ccc12` [Example 19, 1-methanesulfonyl-4-[(7R)-7-methyl-6-{1H-pyrrolo[2,3-b]pyridin-4-yl}-5H,6H,7H,8H-pyrido[4,3-d]pyrimidin-4-yl]-1,4-diazepane], the IC50 at ATR/ATRIP complex (setting [4]) was 1000 to 10000 nM; in assay [1] (setting [3]) it was 162 nM.
Take `C[C@@H]1Cc2ncnc(C3C[C@H]4CC[C@@H](C3)N4S(C)(=O)=O)c2CN1c1cc(Cl)nc2[nH]ccc12` (single isomer, unassigned) [Example 11a]: the IC50 at ATR/ATRIP complex (setting [2]) worked out at 555 nM; in assay [1] (HT-29 cells), 28 nM.
Regarding `CNC(=O)C1CN(c2ncnc3c2CN(c2cc(Cl)nc4[nH]ccc24)[C@H](C)C3)C1` [Example 34, 1-[(7R)-6-{6-chloro-1H-pyrrolo[2,3-b]pyridin-4-yl}-7-methyl-5H,6H,7H,8H-pyrido[4,3-d]pyrimidin-4-yl]-N-methylazetidine-3-carboxamide], the values for the IC50 (at ATR/ATRIP complex (setting [2]); in assay [1] (setting [3])) were 429 nM and 87 nM, respectively.
In the same order, the values of `COC(=O)N1CCCC(c2ncnc3c2CN(c2cc(Cl)nc4[nH]ccc24)[C@H](C)C3)C1` (stereo partly drawn) [Example 10, Methyl 3-((R)-6-(6-chloro-1H-pyrrolo[2,3-b]pyridin-4-yl)-7-methyl-5,6,7,8-tetrahydro-pyrido[4,3-d]pyrimidin-4-yl)piperidine-1-carboxylate bis(trifluoroacetate)] are 408 nM and 39 nM.
For `C[C@@H]1Cc2ncnc([C@H]3CCN(S(C)(=O)=O)C3)c2CN1c1ccnc2[nH]ccc12` [Example 57b, (R)-7-methyl-4-((S)-1-(methylsulfonyl)pyrrolidin-3-yl)-6-(1H-pyrrolo[2,3b]-pyridin-4-yl)-5,6,7,8-tetrahydropyrido[4,3-d]pyrimidine], the IC50 at ATR/ATRIP complex (setting [2]) came out at 1470 nM; in assay [1] (HT-29 cells), 394 nM.
`CS(=O)(=O)N1CCC(c2ncnc3c2CN(c2ccnc4[nH]ccc24)[C@@H](C(F)F)C3)CC1` [Example 53a, (R)-7-(difluoromethyl)-4-(1-(methylsulfonyl)piperidin-4-yl)-6-(1H-pyrrolo[2,3-b]pyridin-4-yl)-5,6,7,8-tetrahydropyrido[4,3-d]pyrimidine]: the “ATR/ATRIP Enzyme IC50” value on ATR/ATRIP complex was “no fit”. Further, the IC50 in assay [1] (setting [3]) was 10000 nM.
